Measurements reported in patent US7569549B2, “Isostructural pseudopolymorphs of 9-deoxo-9a-aza-9a-methyl-9a-homoerythromycin A” (Pliva Hrvatska D.O.O., priority 2002, dated 2009).
Values belong to the compound of their own block, whether it stands above or below them.

How the values were obtained:
[1] = Dissolution profiles by USP Method 2 (PharmaTest Dissolution Tester), dissolved content by HPLC; assay type: physicochemical
Procedure: The comparative dissolution profiles were determined by USP Method 2, PharmaTest Dissolution Tester, PTW SII; the content of dissolved 9-deoxo-9a-aza-9a-methyl-9a-homoerythromycin A was measured by HPLC. The data thus obtained are set forth in Table 6 below, and plotted in FIGS. 17 and 18.
The comparative dissolution profiles were determined by USP Method 2, PharmaTest Dissolution Tester, PTW SII; the content of dissolved 9-deoxo-9a-aza-9a-methyl-9a-homoerythromycin A was measured by HPLC. The data thus obtained are set forth in Table 9 below, and plotted in FIG. 22.

[2] = Intrinsic dissolution rate (Intrinsic Dissolution Tester, Van Kel Type); assay type: physicochemical; details: pH 3 and pH 6, 37° C.
Procedure: In addition to the above data, the intrinsic dissolution rates (IDR's) for the new pseudopolymorph of the invention and the commercial dihydrate, at pH 3 and pH 6 and 37° C., were determined by Intrinsic Dissolution Tester, Van Kel Type.

[3] = in vivo; details: rat, 50 mg/kg
Excerpt: 32 animals were studied using a cross-over experimental design experiment. A non-compartmental analysis was used to determine the concentrations of the respective materials in whole blood and plasma as a function of time.

[4] = Similarity factors (f2) calculated for the dissolution profiles; assay type: physicochemical
Procedure: In order to further assess the data from Table 6, similarity factors (f2) were calculated according to the method described in Note for Guidance on the Investigation of Bioavailability and Bioequivalence (EMEA, December 1998, London) for the dissolution profiles of the two species (9-deoxo-9a-aza-9a-methyl-9a-homoerythromycin A, pseudopolymorph Ia of the present invention, and commercial 9-deoxo-9a-aza-9a-methyl-9a-homoerythromycin A dihydrate).

[5] = Solid state stability by X-ray powder diffraction at varied humidity and temperature; assay type: physicochemical; details: 5% RH to 75% RH; 30° C. to 75° C.
Procedure: The solid state stability of the 9-deoxo-9a-aza-9a-methyl-9a-homoerythromycin A pseudopolymorph Ia (x=1, y=0) was determined by measuring the solid state x-ray powder diffraction pattern for this material at four different percent relative humidities (% RH), ranging from 5% RH to 75% RH, and at five different temperatures, increasing from 30° C. to 75° C. using Philips X'PertPRO powder X-ray diffractometer equipped with Anton Paar TTK-100 humidity camera used for non-ambient data collection.

Percent dissolved ([1]; pH 3, 37° C., 5 minutes): 3.9%
Percent dissolved ([1]; pH 3, 37° C., 10 minutes): 8.1%
Percent dissolved ([1]; pH 3, 37° C., 20 minutes): 14.6%
Percent dissolved ([1]; pH 3, 37° C., 45 minutes): 26.7%
Percent dissolved ([1]; pH 3, 37° C., 60 minutes): 33.3%
Percent dissolved ([1]; pH 3, 37° C., 90 minutes): 39.1%
Percent dissolved ([1]; pH 6, 37° C., 5 minutes): 14.5%
Percent dissolved ([1]; pH 6, 37° C., 10 minutes): 27.3%
Percent dissolved ([1]; pH 6, 37° C., 20 minutes): 44.2%
Percent dissolved ([1]; pH 6, 37° C., 45 minutes): 69.1%
Percent dissolved ([1]; pH 6, 37° C., 60 minutes): 73.7%
Percent dissolved ([1]; pH 6, 37° C., 90 minutes): 75.0%
Intrinsic dissolution rate (IDR) [2]: about 1.8 mg min^−1 cm^−2
AUC(0-48) [3]: 31696.6 nghr/ml
Tmax ([3]; po): 2 h
SMILES: CC[C@H]1OC(=O)[C@H](C)[C@@H](O[C@H]2C[C@@](C)(OC)[C@@H](O)[C@H](C)O2)C(C)[C@@H](O[C@@H]2O[C@H](C)CC(N(C)C)[C@H]2O)[C@](C)(O)C[C@@H](C)CN(C)[C@H](C)[C@@H](O)[C@]1(C)O (stereo partly shown) [9-deoxo-9a-aza-9a-methyl-9a-homoerythromycin A dihydrate, reference compound]

Percent dissolved ([1]; pH 6, 37° C., 5 minutes, listed as Ik (Example 6)): 99.8%
Percent dissolved ([1]; pH 6, 37° C., 10 minutes, listed as Ik (Example 6)): 99.9%
Percent dissolved ([1]; pH 6, 37° C., 20 minutes, listed as Ik (Example 6)): 97.1%
Percent dissolved ([1]; pH 6, 37° C., 45 minutes, listed as Ik (Example 6)): 97.6%
SMILES: CC[C@H]1OC(=O)[C@H](C)[C@@H](O[C@H]2C[C@@](C)(OC)[C@@H](O)[C@H](C)O2)[C@H](C)[C@@H](O[C@@H]2O[C@H](C)C[C@H](N(C)C)[C@H]2O)[C@](C)(O)C[C@@H](C)CN(C)[C@H](C)[C@@H](O)[C@]1(C)O [Pseudopolymorph Ik, 9-deoxo-9a-aza-9a-methyl-9a-homoerythromycin A]

Percent dissolved ([1]; pH 3, 37° C., 5 minutes, listed as Ia (Example 19, Batch 1)): 25.1%
Percent dissolved ([1]; pH 3, 37° C., 5 minutes, listed as Ia (Example 19, Batch 3)): 21.1%
Percent dissolved ([1]; pH 3, 37° C., 5 minutes, listed as Ia (Example 19 Batch 2)): 18.5%
Percent dissolved ([1]; pH 3, 37° C., 10 minutes, listed as Ia (Example 19, Batch 1)): 37.1%
Percent dissolved ([1]; pH 3, 37° C., 10 minutes, listed as Ia (Example 19, Batch 3)): 32.4%
Percent dissolved ([1]; pH 3, 37° C., 10 minutes, listed as Ia (Example 19 Batch 2)): 30.7%
Percent dissolved ([1]; pH 3, 37° C., 20 minutes, listed as Ia (Example 19, Batch 1)): 45.8%
Percent dissolved ([1]; pH 3, 37° C., 20 minutes, listed as Ia (Example 19, Batch 3)): 43.3%
Percent dissolved ([1]; pH 3, 37° C., 20 minutes, listed as Ia (Example 19 Batch 2)): 45.1%
Percent dissolved ([1]; pH 3, 37° C., 45 minutes, listed as Ia (Example 19, Batch 1)): 55.5%
Percent dissolved ([1]; pH 3, 37° C., 45 minutes, listed as Ia (Example 19, Batch 3)): 56%
Percent dissolved ([1]; pH 3, 37° C., 45 minutes, listed as Ia (Example 19 Batch 2)): 60.9%
Percent dissolved ([1]; pH 3, 37° C., 60 minutes, listed as Ia (Example 19, Batch 1)): 58.3%
Percent dissolved ([1]; pH 3, 37° C., 60 minutes, listed as Ia (Example 19, Batch 3)): 61.1%
Percent dissolved ([1]; pH 3, 37° C., 60 minutes, listed as Ia (Example 19 Batch 2)): 64.8%
Percent dissolved ([1]; pH 3, 37° C., 90 minutes, listed as Ia (Example 19, Batch 1)): 62.9%
Percent dissolved ([1]; pH 3, 37° C., 90 minutes, listed as Ia (Example 19, Batch 3)): 64.7%
Percent dissolved ([1]; pH 3, 37° C., 90 minutes, listed as Ia (Example 19 Batch 2)): 70%
Percent dissolved ([1]; pH 6, 37° C., 5 minutes, listed as Ia (Example 19, Batch 1)): 67.0%
Percent dissolved ([1]; pH 6, 37° C., 5 minutes, listed as Ia (Example 19, Batch 3)): 70.2%
Percent dissolved ([1]; pH 6, 37° C., 5 minutes, listed as Ia (Example 19 Batch 2)): 71.7%
Percent dissolved ([1]; pH 6, 37° C., 10 minutes, listed as Ia (Example 19, Batch 1)): 73.2%
Percent dissolved ([1]; pH 6, 37° C., 10 minutes, listed as Ia (Example 19, Batch 3)): 77.3%
Percent dissolved ([1]; pH 6, 37° C., 10 minutes, listed as Ia (Example 19 Batch 2)): 81.4%
Percent dissolved ([1]; pH 6, 37° C., 20 minutes, listed as Ia (Example 19, Batch 1)): 76.7%
Percent dissolved ([1]; pH 6, 37° C., 20 minutes, listed as Ia (Example 19, Batch 3)): 77%
Percent dissolved ([1]; pH 6, 37° C., 20 minutes, listed as Ia (Example 19 Batch 2)): 81.6%
Percent dissolved ([1]; pH 6, 37° C., 45 minutes, listed as Ia (Example 19, Batch 1)): 76.7%
Percent dissolved ([1]; pH 6, 37° C., 45 minutes, listed as Ia (Example 19, Batch 3)): 77.6%
Percent dissolved ([1]; pH 6, 37° C., 45 minutes, listed as Ia (Example 19 Batch 2)): 80.4%
Percent dissolved ([1]; pH 6, 37° C., 60 minutes, listed as Ia (Example 19, Batch 1)): 74.5%
Percent dissolved ([1]; pH 6, 37° C., 60 minutes, listed as Ia (Example 19, Batch 3)): 78%
Percent dissolved ([1]; pH 6, 37° C., 60 minutes, listed as Ia (Example 19 Batch 2)): 79.9%
Percent dissolved ([1]; pH 6, 37° C., 90 minutes, listed as Ia (Example 19, Batch 1)): 75.8%
Percent dissolved ([1]; pH 6, 37° C., 90 minutes, listed as Ia (Example 19, Batch 3)): 79.2%
Percent dissolved ([1]; pH 6, 37° C., 90 minutes, listed as Ia (Example 19 Batch 2)): 80%
Similarity factor (f2) ([4]; Batch 1 vs. Batch 2 of Example 19, pH = 3): 61.3
Similarity factor (f2) ([4]; Batch 1 vs. Batch 2 of Example 19, pH = 6): 63.1
Similarity factor (f2) ([4]; Batch 1 vs. Batch 3 of Example 19, pH = 3): 74.7
Similarity factor (f2) ([4]; Batch 1 vs. Batch 3 of Example 19, pH = 6): 75.4
Similarity factor (f2) ([4]; Batch 2 vs. Batch 3 of Example 19, pH = 3): 71.3
Similarity factor (f2) ([4]; Batch 2 vs. Batch 3 of Example 19, pH = 6): 75.3
Similarity factor (f2) ([4]; Dihydrate vs. Batch 1 of Example 19, pH = 3): 28.6
Similarity factor (f2) ([4]; Dihydrate vs. Batch 1 of Example 19, pH = 6): 25
Similarity factor (f2) ([4]; Dihydrate vs. Batch 2 of Example 19, pH = 3): 27.5
Similarity factor (f2) ([4]; Dihydrate vs. Batch 2 of Example 19, pH = 6): 22.2
Similarity factor (f2) ([4]; Dihydrate vs. Batch 3 of Example 19, pH = 3): 29.4
Similarity factor (f2) ([4]; Dihydrate vs. Batch 3 of Example 19, pH = 6): 23.7
Solid state stability (phase transitions by x-ray powder diffraction) [5]: no phase-transitions occur
Intrinsic dissolution rate (IDR) [2]: 2.5-2.8 mg min^−1 cm^−2
IDR higher than the IDR of the dihydrate ([2]; relative to dihydrate): 40 to 50%
AUC(0-12) higher relative to the commercial dihydrate [3]: approximately 20%
AUC(0-48) [3]: 35659.0 nghr/ml
Tmax [3]: 2 h
SMILES: CC[C@H]1OC(=O)[C@H](C)[C@@H](O[C@H]2C[C@@](C)(OC)[C@@H](O)[C@H](C)O2)[C@H](C)[C@@H](O[C@@H]2O[C@H](C)C[C@H](N(C)C)[C@H]2O)[C@](C)(O)C[C@@H](C)CN(C)[C@H](C)[C@@H](O)[C@]1(C)O [Pseudopolymorph Ia, 9-deoxo-9a-aza-9a-methyl-9a-homoerythromycin A]
